Assays:
[1] = system: HIV-1 infection of TZM-bl cells; test: HIV-1 infectivity enhancement assay, β-galactosidase luminescence; format: cell-based
TZM-bl cells = format: cell-based; conditions: CellTiter-Glo, mean of n = 3 replicates
Experimental: The cell viability after addition of peptides to TZM–bl cells was studied via the CellTiter–Glo assay. To this end, 10,000 cells were seeded and on the next day serial diluted peptides were added. After 3 days the supernatant was removed and 100 µL CellTiter–Glo Reagent 1:1 diluted in PBS was added. After 10 min 50 µL was transferred to white microplate and luminescence was recorded by Orion microplate luminometer.
2. Cell Viability of Representatively Selected Peptides
Figure S 2 Cell Viability normalized to 100% metabolic activity as determined by CellTiterGlo Assay of 57 representatively selected peptides from the library. The selection represents infectivity enhancing and not […]
concentration. Error bars indicate standard deviation from triplicate measurements. Source data for Figure S2 […]
Figure S3 Cell Viability normalized to 100% metabolic activity determined by CellTiterGlo Assay of 20 peptides reported in literature. 33,34,43–48,35–42 Cell viability (> 80%) is maintained for all peptides at 1.3 µM concentration regardless of the preparation method, which is A PNF formation method by dilution of 10 mg/mL peptide stock in DMSO in PBS to 1 mg/mL or B preparation according to literature reported protocol (SI Section 8). Error bars indicate standard deviation from triplicate measurements. Source data for Figure S3 is provided.

[2] = Zeta-potential measurement; format: physicochemical; conditions: zeta potential of peptide; Fig S15 source data
Procedure, shortened: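 Peptides from a 10 mg/mL DMSO stock were brought to 1 mg/mL in PBS (pH 7.4) and aged 1 d at RT. Just before reading, they were diluted into 1 mM aqueous KCl, and zeta potential was calculated from electrophoretic mobility with the Smoluchowski formula.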

CKIW [TM81]
infectivity ([1]; infectivity class (low / medium / high) of the peptide in the sequence-pattern analysis, Fig. S22-A4, class limits not given): low | Log10 Inf. rel. to EF-C ([1]; log10 of HIV-1 infection of TZM-bl cells relative to EF-C, Fig S15 source data, asymmetric std dev errors): -1.286 | viability 0.26 µM (TZM-bl cells; peptide 0.26 µM): 106.2 | viability 1.3 µM (TZM-bl cells; peptide 1.3 µM): 107.1 | viability 6.5 µM (TZM-bl cells; peptide 6.5 µM): 100.6 | Zeta-pot. / mV [2]: -3.71 mV
